The text below walks through data of patent publication US9066948B2, “Oxadiazolo[3,2-a]pyrimidines and thiadiazolo[3,2-a]pyrimidines” (THE UNITED STATES OF AMERICA AS REPRESENTED BY THE …, priority 2010, dated 2015).

Assay [1] addresses T1, HEK293 cells stably expressing normal human αVβ3 (Homo sapiens, UniProt P05106+P06756).
T1 construct: expressed in transfected cells; host or cells: HEK293
Briefly: αVβ3-mediated cell adhesion to vitronectin. The format is cell-based. The settings on record: HEK293, n=4. The procedure:
Washed platelets are prepared as per the primary screening assay, suspended in HBMT containing 1 mM MgCl2 (platelet adhesion to collagen) or 2 mM CaCl2/1 mM MgCl2 (platelet adhesion to fibrinogen) and adjusted to a count of 250×10^9/L. HEK293 cells stably expressing normal human αVβ3 or normal human αIIbβ3 are suspended in HBMT containing either 1 mM MgCl2 (HEK293 cells expressing αVβ3 for adhesion to vitronectin) or 2 mM CaCl2/1 mM MgCl2 (HEK293 cells expressing αIIbβ3 for adhesion to fibrinogen); the cell counts are adjusted to 10^6/mL. Polystyrene 96-well microtiter plates (Nunc) are coated with either fibrinogen (50 μg/mL), vitronectin (5 μg/mL), or collagen (33 μg/mL, rat tail type 1; Becton Dickinson) for 1 hour, and blocked with HBMT for at least 1 hour. Platelets and cells are treated with the compound of Example 27 of the current invention or 2-ethyl-7-(piperazin-1-yl)-5H-[1,3,4]thiadiazolo-[3,2-a]pyrimidin-5-one of U.S. Ser. No. 12/514,286 in the presence or absence of anti-α2β1 mAb 6F1, anti-αIIbβ3 mAb 10E5, anti-αIIbβ3 mAb 10E5+αVβ3 mAb 7E3, αVβ3-specific mAb LM609, or anti-αVβ3+αIIbβ3 mAb 7E3, for 15 minutes at 37° C. before being added to the microtiter wells. After adhering for 1 hour at either 22° C. (platelets) or 37° C. (cells), nonadherent platelets or cells are removed by washing 3 times with HBMT containing the same ion composition as the buffer used for adhesion. […] In other experiments, 8-chambered glass coverslips (Nunc) are coated with collagen (33 μg/mL) for 1 hour at 22° C. Washed platelets are allowed to adhere for 1 hour at 22° C. and the coverslips are stained with the Alexa-488-conjugated β3-specific mAb 7H2. Adherent platelets are imaged using a Zeiss LSM-510 confocal system with Axiovert 200 microscope (Carl Zeiss, Heidelberg, Germany) using a Plan-Apochromat 100/1.4 NA oil DIC objective.

The next assay has as its target T2, αIIbβ3 (Homo sapiens, UniProt P05106+P08514).
T2 construct: Washed platelets are prepared in HBMT containing 2 mM CaCl2/1 mM MgCl2; endogenous in cells; host or cells: washed platelets
Briefly: Induction of ligand-induced binding site (LIBS) epitopes, flow cytometry of washed platelets. In kind it is cell-based. The following applies: eptifibatide 10 μM = 100%, Example 27 at 100 μM. The procedure: Washed platelets are prepared in HBMT containing 2 mM CaCl2/1 mM MgCl2. […] Fluorescently labeled monoclonal antibodies (PMI-1, LIBS-1, AP5, or 10E5; Alexa-488 conjugated; Invitrogen) are then added (20 μL, final concentration: 5 μg/mL) and incubated for 30 minutes at 22° C. in the dark, after which samples are diluted 1:10 in HBMT with CaCl2/MgCl2 for analysis by flow cytometry (FACSCalibur; Becton Dickinson, Franklin Lakes, N.J.). Antibody binding is reported as the geometric mean fluorescence intensity; nonspecific binding is determined by adding a 50-fold excess of unlabeled antibody before adding the labeled antibody. The net normalized fluorescence intensity in the presence of eptifibatide (10 μM, 30 min incubation at 22° C.) is assigned the value of 100%

Assay [2] concerns platelets. As to the kind of experiment: Platelet aggregation assay: ADP-induced, platelet-rich plasma. The format is cell-based, human. The settings on record: citrate anticoagulant, tested twice, read-out: IC50, ADP-induced platelet aggregation of citrated PRP. On the procedure: […] After 30 seconds in the aggregometer (Kowa AF-10E; Tokyo, Japan) at 37° C. with stirring, ADP (5-20 μM) is added to induce aggregation and the light transmittance is measured for 8 minutes. The initial slopes of aggregation in the presence of different concentrations of the Compound being tested are used to generate an IC50.

Assay [3] concerns platelets. Briefly: Platelet adhesion assay: calcein-labeled platelets on fibrinogen-coated wells. In kind it is cell-based. The following applies: Homo sapiens, mean±SD. On the procedure: Thirty microliters of human fibrinogen (50 μg/mL) in Tris/saline (100 mM NaCl, 50 mM Tris/HCl, pH 7.4; American Diagnostica, Stamford, Conn.) are added to black, clear-bottom, untreated polystyrene, nonsterile 384-well microtiter plate wells (Corning no. 3711; Acton, Mass.). […] An additional wash is performed using HBMT with 1 mM MgCl2 and 2 mM CaCl2. Calcein-labeled platelets (final concentration 1×10^11/L) are treated with selected Compounds of the Invention (final concentration of 100 μM, 30 μM, 10 μM or 1 μM) at 22° C. for 20 minutes. Thirty microliters of platelets are then added to the wells. After 1 hour of adhesion, wells are washed 3 times with HBMT-1 mM MgCl2/2 mM CaCl2 and the plates are read by a fluorescent microtiter plate reader (Envision; Perkin Elmer) to detect calcein fluorescence (490 nm excitation and 515 nm emission). Negative controls consist of wells containing platelets without compounds of the invention.

Another assay addresses T3, purified αIIbβ3 (Homo sapiens, UniProt P05106+P08514).
T3 construct: αIIbβ3 is purified from outdated single donor platelet concentrates obtained from the New York Blood Center; tissue New York Blood Center; host or cells: outdated single donor platelet concentrates
Briefly: Extension of purified αIIbβ3 in nanodiscs by negative staining electron microscopy. The settings on record: for shift of nanodisc-integrin length (NIL) frequency distribution: 1 hour at room temperature, at highest doses majority of NIL values 18 to 23 nm. On the procedure:
In brief, the His-tagged membrane scaffold protein is prepared as a recombinant protein in E. coli and purified by Nickel affinity chromatography and anion exchange chromatography. Final assembly consists of solubilizing an equimolar mixture of 1,2-dimyristoyl-sn-glycero-3-phosphocholine and 1,2-dimyristoyl-sn-glycero-3-phospho-(1′-rac-glycerol) in octylglucoside and cholate and then adding the purified αIIbβ3. The detergents are removed with macroporous polymeric beads (Bio-Bead SM-2) and then the αIIbβ3 nanodiscs are separated from the empty nanodiscs by gel filtration.
αIIbβ3 nanodiscs are treated with eptifibatide, tirofiban, 2-ethyl-7-(piperazin-1-yl)-5H-[1,3,4]thiadiazolo-[3,2-a]pyrimidin-5-one of U.S. Ser. No. 12/514,286, or the compound of Example 27 of the current invention for 1 hour at room temperature at concentrations up to 100 μM for 2-ethyl-7-(piperazin-1-yl)-5H-[1,3,4]thiadiazolo-[3,2-a]pyrimidin-5-one (a compound claimed in U.S. Ser. No. 12/514,286) and at concentrations up to 10 μM for 2-amino-N-(3-(5-oxo-7-(piperazin-1-yl)-5H-[1,3,4]thiadiazolo[3,2-a]pyrimidin-2-yl)phenyl)acetamide of Example 27. Samples are loaded onto carbon-coated copper grids that are glow-discharged by a carbon coating unit (Edwards; Crowley, UK), and then stained with 2% uranyl acetate, followed by drying. Imaging of αIIbβ3 nanodiscs is performed using a JOEL JEM 100CX transmission electron microscope (Jeol Ltd; Tokyo, Japan) at 80 kV and magnifications of 33,000× and 50,000×. Individual nanodiscs containing αIIbβ3 are manually selected for analysis using Image J (NIH, Bethesda, Md.). The distance from the bottom of the nanodisc to the height of the αIIbβ3 complex (nanodisc-integrin length; NIL) is measured as an indicator of integrin extension. The frequency distribution of NIL values is then analyzed for untreated αIIbβ3 nanodiscs and αIIbβ3 nanodiscs in the presence of different compounds.

Assay [4] concerns the target T4, HEK293 cells stably expressing normal human αIIbβ3 (Homo sapiens, UniProt P05106+P08514).
T4 construct: expressed in transfected cells; host or cells: HEK293
Briefly: αIIbβ3-mediated cell adhesion to fibrinogen. The settings on record: same concentration as αVβ3 experiments (100 μM), n=4. The format is cell-based. The procedure:
Washed platelets are prepared as per the primary screening assay, suspended in HBMT containing 1 mM MgCl2 (platelet adhesion to collagen) or 2 mM CaCl2/1 mM MgCl2 (platelet adhesion to fibrinogen) and adjusted to a count of 250×10^9/L. HEK293 cells stably expressing normal human αVβ3 or normal human αIIbβ3 are suspended in HBMT containing either 1 mM MgCl2 (HEK293 cells expressing αVβ3 for adhesion to vitronectin) or 2 mM CaCl2/1 mM MgCl2 (HEK293 cells expressing αIIbβ3 for adhesion to fibrinogen); the cell counts are adjusted to 10^6/mL. Polystyrene 96-well microtiter plates (Nunc) are coated with either fibrinogen (50 μg/mL), vitronectin (5 μg/mL), or collagen (33 μg/mL, rat tail type 1; Becton Dickinson) for 1 hour, and blocked with HBMT for at least 1 hour. Platelets and cells are treated with the compound of Example 27 of the current invention or 2-ethyl-7-(piperazin-1-yl)-5H-[1,3,4]thiadiazolo-[3,2-a]pyrimidin-5-one of U.S. Ser. No. 12/514,286 in the presence or absence of anti-α2β1 mAb 6F1, anti-αIIbβ3 mAb 10E5, anti-αIIbβ3 mAb 10E5+αVβ3 mAb 7E3, αVβ3-specific mAb LM609, or anti-αVβ3+αIIbβ3 mAb 7E3, for 15 minutes at 37° C. before being added to the microtiter wells. After adhering for 1 hour at either 22° C. (platelets) or 37° C. […]

Assay [5] relates to washed platelets. As to the kind of experiment: Effect of Mg2+ on washed platelet aggregation induced by thrombin receptor activating peptide (SFLLRN). The format is cell-based, human. The settings on record: compound at 100 μM; SFLLRN 10 μM. On the procedure: Washed platelets are resuspended in buffer containing fibrinogen (200 μg/ml) and 1 mM […] in combination with either 1 mM or 20 mM Mg^2+. Aggregation is induced by adding a thrombin receptor activating peptide (SFLLRN) at 10 μM.

Assay [6] deals with washed platelets. Briefly: Effect of Mg2+ concentration on platelet adhesion to fibrinogen. The following applies: 1, 20, 50 mM Mg2+. The format is cell-based, human. On the procedure: Washed platelets in buffers containing 1 mM Ca^2+ plus 1 mM, 20 mM, or 50 mM Mg^2+ are added to wells pre-coated with fibrinogen (50 μg/ml) for 60 min at 22° C. After washing, adherent platelets are detected by acid phosphatase activity. Results are expressed as mean±SD (n=3 for the compound of Example 27 of the current invention and 2-ethyl-7-(piperazin-1-yl)-5H-[1,3,4]thiadiazolo-[3,2-a]pyrimidin-5-one (a compound disclosed and claimed in U.S. Ser. No. 12/514,286); n=2 for tirofiban).

Each structure is given as a SMILES string. “And” between values parts separate entries of the source, which are not always exact repeats. Identical values can stand only once. Like-named read-outs stand apart in the source and are kept apart here. Bridge positions count the residues as written; N and C are the ends. Square brackets hold non-standard residues; d marks the D form. Peptide text beside a SMILES is read from it. hArg = N=C(N)NCCCC[C@H](N)C(=O)O; Mpa = O=C(O)CCS

T2 sequence (P08514 32-887 limits assumed): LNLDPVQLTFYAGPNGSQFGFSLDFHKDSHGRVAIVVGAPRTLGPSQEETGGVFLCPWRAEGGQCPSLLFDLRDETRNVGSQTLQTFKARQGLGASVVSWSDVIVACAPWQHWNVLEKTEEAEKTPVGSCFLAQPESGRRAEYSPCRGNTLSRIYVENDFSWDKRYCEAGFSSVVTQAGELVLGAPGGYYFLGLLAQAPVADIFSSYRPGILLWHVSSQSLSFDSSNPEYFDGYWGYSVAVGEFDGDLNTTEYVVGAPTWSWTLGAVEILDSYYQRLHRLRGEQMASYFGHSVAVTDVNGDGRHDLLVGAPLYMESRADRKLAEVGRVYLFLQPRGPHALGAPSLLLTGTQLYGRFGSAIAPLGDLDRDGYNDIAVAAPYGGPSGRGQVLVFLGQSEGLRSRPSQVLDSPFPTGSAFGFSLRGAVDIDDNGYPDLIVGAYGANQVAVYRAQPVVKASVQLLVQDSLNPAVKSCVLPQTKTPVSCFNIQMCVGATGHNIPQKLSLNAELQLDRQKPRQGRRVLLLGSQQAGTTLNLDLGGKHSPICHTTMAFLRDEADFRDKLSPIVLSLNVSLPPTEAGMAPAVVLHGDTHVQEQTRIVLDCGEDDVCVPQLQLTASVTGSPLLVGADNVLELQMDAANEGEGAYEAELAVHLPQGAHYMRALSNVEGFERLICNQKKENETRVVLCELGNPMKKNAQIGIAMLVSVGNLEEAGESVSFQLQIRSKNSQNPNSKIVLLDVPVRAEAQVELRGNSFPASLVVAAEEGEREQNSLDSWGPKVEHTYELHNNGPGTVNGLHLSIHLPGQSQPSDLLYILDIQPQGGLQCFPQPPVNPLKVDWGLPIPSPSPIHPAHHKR
T2 sequence (P08514 891-1039 partner limits assumed): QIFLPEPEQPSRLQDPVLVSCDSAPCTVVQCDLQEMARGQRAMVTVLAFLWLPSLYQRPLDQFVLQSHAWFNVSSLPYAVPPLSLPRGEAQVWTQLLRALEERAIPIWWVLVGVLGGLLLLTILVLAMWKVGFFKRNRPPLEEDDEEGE
T2 sequence (P05106 27-788): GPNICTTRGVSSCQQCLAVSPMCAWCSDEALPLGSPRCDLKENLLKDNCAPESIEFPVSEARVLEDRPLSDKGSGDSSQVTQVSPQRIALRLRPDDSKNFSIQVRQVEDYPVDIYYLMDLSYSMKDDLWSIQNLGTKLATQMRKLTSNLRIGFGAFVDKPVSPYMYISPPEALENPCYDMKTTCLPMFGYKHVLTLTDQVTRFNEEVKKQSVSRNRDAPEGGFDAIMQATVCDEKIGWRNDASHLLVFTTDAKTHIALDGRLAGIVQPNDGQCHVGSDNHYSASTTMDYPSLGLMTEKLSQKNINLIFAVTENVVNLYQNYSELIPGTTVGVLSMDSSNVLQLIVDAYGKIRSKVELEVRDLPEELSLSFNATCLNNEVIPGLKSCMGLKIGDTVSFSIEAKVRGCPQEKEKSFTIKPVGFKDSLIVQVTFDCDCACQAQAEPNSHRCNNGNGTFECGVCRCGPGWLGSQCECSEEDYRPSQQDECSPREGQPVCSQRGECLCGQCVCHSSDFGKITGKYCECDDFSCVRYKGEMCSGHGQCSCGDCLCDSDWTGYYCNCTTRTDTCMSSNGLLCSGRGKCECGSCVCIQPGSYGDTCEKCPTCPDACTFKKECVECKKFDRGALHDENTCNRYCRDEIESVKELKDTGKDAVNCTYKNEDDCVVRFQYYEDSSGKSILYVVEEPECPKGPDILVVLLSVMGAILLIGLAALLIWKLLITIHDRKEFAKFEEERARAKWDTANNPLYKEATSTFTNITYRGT
T3 sequence (P08514 32-887 limits assumed): as the sequence (P08514 32-887 limits assumed) above
T3 sequence (P08514 891-1039 partner limits assumed): as the sequence (P08514 891-1039 partner limits assumed) above
T3 sequence (P05106 27-788): as the sequence (P05106 27-788) above
T1 sequence (P06756 31-889 limits assumed): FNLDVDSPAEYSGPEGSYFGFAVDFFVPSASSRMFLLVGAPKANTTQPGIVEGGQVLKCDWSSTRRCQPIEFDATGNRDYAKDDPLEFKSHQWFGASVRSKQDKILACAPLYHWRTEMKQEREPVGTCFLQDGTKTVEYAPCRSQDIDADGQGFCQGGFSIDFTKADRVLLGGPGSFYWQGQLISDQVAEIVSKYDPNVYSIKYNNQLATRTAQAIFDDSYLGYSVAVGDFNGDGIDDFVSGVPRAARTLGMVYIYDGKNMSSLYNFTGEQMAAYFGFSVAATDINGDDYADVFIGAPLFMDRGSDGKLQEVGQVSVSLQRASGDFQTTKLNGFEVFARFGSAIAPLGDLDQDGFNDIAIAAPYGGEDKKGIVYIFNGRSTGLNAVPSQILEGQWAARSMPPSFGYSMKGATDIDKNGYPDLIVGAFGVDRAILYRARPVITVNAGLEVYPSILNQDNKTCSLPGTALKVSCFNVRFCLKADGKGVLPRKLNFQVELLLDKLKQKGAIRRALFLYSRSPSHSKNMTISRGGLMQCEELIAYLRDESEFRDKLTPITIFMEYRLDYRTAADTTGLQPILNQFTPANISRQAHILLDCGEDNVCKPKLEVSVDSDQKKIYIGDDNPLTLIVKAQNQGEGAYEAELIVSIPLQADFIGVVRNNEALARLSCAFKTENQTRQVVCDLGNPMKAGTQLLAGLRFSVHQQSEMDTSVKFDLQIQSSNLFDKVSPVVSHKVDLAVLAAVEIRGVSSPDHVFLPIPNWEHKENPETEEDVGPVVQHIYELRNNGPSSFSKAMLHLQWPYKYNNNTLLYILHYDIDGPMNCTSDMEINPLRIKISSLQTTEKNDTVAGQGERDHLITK
T1 sequence (P06756 891-1048 partner limits assumed): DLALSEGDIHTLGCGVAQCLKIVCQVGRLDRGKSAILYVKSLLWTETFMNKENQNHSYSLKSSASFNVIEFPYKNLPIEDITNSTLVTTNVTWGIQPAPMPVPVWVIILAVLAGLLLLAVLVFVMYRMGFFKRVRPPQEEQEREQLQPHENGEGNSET
T1 sequence (P05106 27-788): as the sequence (P05106 27-788) above
T4 sequence (P08514 32-887 limits assumed): as the sequence (P08514 32-887 limits assumed) above
T4 sequence (P08514 891-1039 partner limits assumed): as the sequence (P08514 891-1039 partner limits assumed) above
T4 sequence (P05106 27-788): as the sequence (P05106 27-788) above

Consider `NCC(=O)Nc1cccc(-c2nn3c(=O)cc(N4CCNCC4)nc3s2)c1` [2-amino-N-(3-(5-oxo-7-(piperazin-1-yl)-5H-[1,3,4]thiadiazolo[3,2-a]pyrimidin-2-yl)phenyl)acetamide], for which the inhibition at 10 µM in assay [1] (10 μM) came to 6 ± 15%.
Turning to `CCc1nn2c(=O)cc(N3CCNCC3)nc2s1` [Example 1, 2-ethyl-7-(piperazin-1-yl)-5H-[1,3,4]thiadiazolo[3,2-a]pyrimidin-5-one], the “AP5 binding, % of the amount in the presence of eptifibatide” value at αIIbβ3 was 10±4% and 10%. Further, the “LIBS1 binding after 30 min, % of the amount in the presence of eptifibatide” value at αIIbβ3 amounted to 18±2%. Further, the “PMI-1 binding, % of the amount bound by platelets treated with eptifibatide” value on αIIbβ3 is listed as 73±9%. For the same compound, the 50% inhibitory concentration (IC50) in the assay with platelets [2] (Homo sapiens, Platelet) is 12 µM; in the assay on platelets [2], 18 µM. Besides, the inhibition at 100 µM in assay [1] (100 μM) is 5 ± 7%; with platelets [3] (100 μM, 5 separate experiments) it was 70 ± 15%; in assay [4], 55 ± 5%. Besides, the inhibition at 10 µM in the assay with platelets [3] was 22 ± 8%. The inhibition at 30 µM with platelets [3] (30 μM, 5 separate experiments) is 38 ± 10%. Also, the “shift of nanodisc-integrin length (NIL) values / receptor extension” value on purified αIIbβ3 (concentrations up to 100 μM) is given as “do not induce receptor extension”. Further, the “effect of Mg2+ on the inhibition of SFLLRN-induced platelet aggregation” value with washed platelets [5] is reported as “much less evident”.
For the compound `N=C(N)NCCCC[C@@H]1NC(=O)CCSSC[C@@H](C(N)=O)NC(=O)[C@@H]2CCCN2C(=O)[C@H](Cc2c[nH]c3ccccc23)NC(=O)[C@H](CC(=O)O)NC(=O)CNC1=O` [eptifibatide, reference compound] ([Mpa][hArg]GDWPC-NH2; disulfide 1-7), the “shift of nanodisc-integrin length (NIL) frequency distribution” value at purified αIIbβ3 was “shift the distribution in a dose-dependent manner”.
As for `CCCCS(=O)(=O)N[C@@H](Cc1ccc(OCCCCC2CCNCC2)cc1)C(=O)O` [tirofiban, reference compound], the inhibition at 10 µM in the assay with platelets [3] is 87 ± 9%. Further, the “increase in IC50 at higher Mg2+ concentrations comparable to that of Example 27” value with washed platelets [6] was “nor tirofiban shows a comparable increase in IC50”. In addition, the “shift of nanodisc-integrin length (NIL) frequency distribution” value on purified αIIbβ3 was “shift the distribution in a dose-dependent manner”.
